Patent publication EP4588908A1, “NEW PROSTACYCLIN FOR TREATING PULMONARY HYPERTENSION” (Shanghai Forefront Pharma Co., Ltd., priority 2023, dated 2025)

Tests used:
male Sprague-Dawley rats [1] = assay: Hemodynamic measurement (RVSP by right cardiac catheterization) in MCT-modelled PAH rats; assay type: in vivo
Method: (§1) Twenty-eight 7-week-old male Sprague-Dawley rats (average weight of 200-250 g) were purchased from Vital River and were raised at the experimental site for 1 week of acclimatization (temperature 20°C-26°C, humidity 30%-70%, light-dark cycle ratio 1:1) until they were 8 weeks old.
(§2) Twenty-eight rats were randomized into the following 6 groups, including dosing groups, positive control groups, a negative control group and a healthy control group, and each was marked with ear tags.
(§3) • (1) Preparation of monocrotaline (MCT) solution: An adequate amount of MCT was weighed into a 50 mL solution of 20% ethanol-normal saline. After gentle shaking, the solution was transferred to a 50-mL centrifuge tube, and placed tilted in a thermostatic shaker at 37°C, 220 rpm for 12-14 hours to fully dissolve until no visible crystalline particles observed. • (2) Injection of MCT solution: The skin on the dorsal cervical region of the rats was gently lifted, MCT solution was subcutaneously injected at a dose of 60 mg/kg using a 1-mL syringe and the day was recorded as Day 0. • (3) Healthy control: The same volume of normal saline was injected in the same manner.
(§4) According to the concentration of 0.6 mg/mL and 1.2 mg/mL (3-mg/kg/day and 6-mg/kg/day dose groups), appropriate amounts of the test compound were weighed and dissolved in corresponding volume of pure water by shaking to obtain transparent solution, respectively; • (2) The resulting solutions were stored in a 4°C refrigerator. Remove and equilibrate to room temperature before use;
(§5) Starting from Day 14, the rats were weighed daily, and the corresponding solutions (test compound or normal saline) were administered intragastrically according to the grouping protocol until Day 27, for a total of 14 days; the intragastric dose was 0.5 mL/100 g, and the body weight and survival data of the rats were recorded.
On Day 28, the hemodynamic status of the rats was assessed using right cardiac catheterization: • (1) The PE-50 catheter, pressure transducer and pressure measuring workstation were prepared; the tubing was rinsed with heparinized saline to ensure that no bubbles remained in the tubing; the catheter was corrected to zero; • (2) The rats were anesthetized with 2% isoflurane at a flow rate of 2 L/min, and their limbs and incisors were fixed on the operating table with the cranial end to the operator; • (3) The fur on the surgical area of cervical region was shaved; • (4) The cervical skin was cut along the midline, pulled and fixed using hemostats, and the tissue was separated layer by layer using scissors to expose the right internal jugular vein; • (5) The internal jugular vein was bluntly dissected and isolated using hemostats; • (6) The distal end of the internal jugular vein was ligated using 4-0 sutures, and a suture was passed through the proximal end for later use; • (7) A V-shaped incision was made in the internal jugular vein using ophthalmic scissors, and a PE-50 catheter was inserted through the incision. After the catheter was placed, the pre-placed suture at the proximal end of the internal jugular vein was ligated to secure the catheter; • (8) The catheter reached the right atrium and right ventricle in turn; the right atrial pressure and right ventricular pressure were recorded; at least 5 stable waveforms were recorded at each site; 5 continuous waveforms were taken as segments, and more than 2 segments were intercepted to calculate the right ventricular systolic pressure (RVSP); • (9) The PE-50 catheter was removed and the examination was completed.

male Sprague-Dawley rats [2] = assay: Fulton index measurement RV/(LV+S) in MCT-modelled PAH rats; assay type: in vivo
Method: as §1, §2, §3, §4, §5
The tube was shaken upside down 6-8 times to mix; • (3) The lungs and heart were exposed by further opening the chest cavity; • (4) The left atrial appendage was cut open, a tube of heparinized saline was slowly injected using a 5-mL syringe into the right atrial appendage to flush the pulmonary vessels; • (5) The rat heart, lung, liver, spleen and kidney tissues were kept and frozen, and fixed with formaldehyde solution.
After separating the heart, the non-ventricular parts (such as the atria, blood vessels, and valve rings) were cut off. The intraventricular thrombus was removed as much as possible using forceps. The right ventricle (RV) and left ventricle (LV) + ventricular septum (LV+S) were separated by cutting along tense junction between the RV and interventricular septum (S) using straight scissors. The tissues were dried with gauze and weighed separately. RV/(LV+S) was calculated as the Fulton index. [drawing 107]

[3] = Dissolution in water when preparing the test compound solutions; assay type: physicochemical; conditions: pure water; 0.6 mg/mL and 1.2 mg/mL gave transparent solution
Method: as §4

[4] = 3 mg/kg/day intragastric from Day 14, MCT 60 mg/kg rats, negative control 63±7.34, healthy control 22±2.41
[5] = 6 mg/kg/day intragastric from Day 14, MCT 60 mg/kg rats, negative control 63±7.34, healthy control 22±2.41
[6] = 3 mg/kg/day intragastric from Day 14, MCT 60 mg/kg rats, RV/(LV+S), negative control 0.61, healthy control 0.29
[7] = 6 mg/kg/day intragastric from Day 14, MCT 60 mg/kg rats, RV/(LV+S), negative control 0.61, healthy control 0.29
[8] = 60(30mpk bid) mg/kg/day, Group 7, same experimental method

SMILES: CCCCC[C@H](O)CC[C@H]1[C@H](O)[C@@H](CC)[C@@H]2Cc3c(cccc3OCC(=O)O)C[C@@H]21 [Compound 1]
- RVSP mmHg (male Sprague-Dawley rats [1]; [4]): 41 ± 16.27 mmHg
- RVSP mmHg (male Sprague-Dawley rats [1]; 3 mg/kg/day intragastric from Day 14, MCT 60 mg/kg rats, negative control 63±7.34, healthy control 22±2.41, listed as Compound 1M): 41±16.27 mmHg
- RVSP mmHg (male Sprague-Dawley rats [1]; [5]): 22 ± 4.36 mmHg
- RVSP mmHg (male Sprague-Dawley rats [1]; 6 mg/kg/day intragastric from Day 14, MCT 60 mg/kg rats, negative control 63±7.34, healthy control 22±2.41, listed as Compound 1H): 22+4.36 mmHg
- Fulton index (male Sprague-Dawley rats [2]; [6]): 0.37 ± 0.12
- Fulton index (male Sprague-Dawley rats [2]; 3 mg/kg/day intragastric from Day 14, MCT 60 mg/kg rats, RV/(LV+S), negative control 0.61, healthy control 0.29, listed as Compound 1M): 0.37+0.12
- Fulton index (male Sprague-Dawley rats [2]; [7]): 0.25 ± 0.27
- Fulton index (male Sprague-Dawley rats [2]; 6 mg/kg/day intragastric from Day 14, MCT 60 mg/kg rats, RV/(LV+S), negative control 0.61, healthy control 0.29, listed as Compound 1H): 0.25±0.27
- Solubility in water [3]: can be directly dissolved in water

SMILES: O=C(O)COC[C@H]1CC[C@H](COC(=O)N(c2ccccc2)c2ccc(Cl)cc2)CC1 [Ralinepag]
- RVSP mmHg (male Sprague-Dawley rats [1]; [8]): 22 mmHg
- Fulton index (male Sprague-Dawley rats [2]; [8]): 0.35

SMILES: CCCCC[C@H](O)CC[C@@H]1[C@H]2Cc3cccc(OCC(=O)O)c3C[C@H]2C[C@H]1O [Compound C1, Treprostinil sodium 5.5-hydrate]
- RVSP mmHg (male Sprague-Dawley rats [1]; [4]): 46 ± 13.45 mmHg
- RVSP mmHg (male Sprague-Dawley rats [1]; 3 mg/kg/day intragastric from Day 14, MCT 60 mg/kg rats, negative control 63±7.34, healthy control 22±2.41, listed as Compound C1M): 46+13.45 mmHg
- RVSP mmHg (male Sprague-Dawley rats [1]; [5]): 38 ± 8.86 mmHg
- RVSP mmHg (male Sprague-Dawley rats [1]; 6 mg/kg/day intragastric from Day 14, MCT 60 mg/kg rats, negative control 63±7.34, healthy control 22±2.41, listed as Compound C1H): 38+8.86 mmHg
- Fulton index (male Sprague-Dawley rats [2]; [6]): 0.38 ± 0.10
- Fulton index (male Sprague-Dawley rats [2]; 3 mg/kg/day intragastric from Day 14, MCT 60 mg/kg rats, RV/(LV+S), negative control 0.61, healthy control 0.29, listed as Compound C1M): 0.38+0.10
- Fulton index (male Sprague-Dawley rats [2]; [7]): 0.37 ± 0.07
- Fulton index (male Sprague-Dawley rats [2]; 6 mg/kg/day intragastric from Day 14, MCT 60 mg/kg rats, RV/(LV+S), negative control 0.61, healthy control 0.29, listed as Compound C1H): 0.37+0.07
- Solubility in water [3]: can be directly dissolved in water
